{"source": "patent US20220046919A1", "about": "“SYNERGISTIC INSECTICIDAL COMBINATIONS” (UPL LTD, priority 2019, published 2022)", "key": {"[1]": {"system": "Amrasca bigutula bigutula", "test": "Field trial: control of Jassids in infected Okra", "type": "in vivo", "conditions": "Denatonium Benzoate alone", "procedure": "(§1) Field trials were conducted to study the effect of the combination of Denatonium benzoate with insecticides. The following three combinations were tested on the control of Jassids species Amrasca bigutula bigutula in the crop of infected Okra (Abelmoschus esculentum L) over the use of insecticides alone. • Denatonium benzoate+Flonicamid • Denatonium benzoate+Thiamethoxam • Denatonium benzoate+Imidacloprid\n(§2) Both phytotoxicity and percentage control of the Jassids was measured.\nT-1, T-2 and T-3 are the treatment with insecticidal combinations according to the present invention; T-4, T-5 and T-6 are the treatment with insecticides alone; T-7 and T-8 are the treatment with Denatonium benzoate (DB) liquid solutions alone and T-9 is the control.\nBio-efficacy of insecticidal combinations of the present invention against Jassids in infected Okra were evaluated. The percentage control of Jassids was measured. Efficacy was evaluated as: Excellent 91-100%, Very good 81-90%, Good 71-80%, Moderate 51-70%, Poor<50%."}, "[2]": {"system": "Okra (Abelmoschus esculentum L)", "test": "Phytotoxicity / crop safety on Okra in the field trial", "type": "in vivo", "conditions": "both application rates, 4 ml & 5 ml/lit of water", "procedure": "as §1, §2\nThe safety of Denatonium Benzoate (DB) combinations according to present invention on Okra was evaluated. It is observed that the DB combinations according to the present invention are safe and no Phytotoxicity is observed."}, "[3]": {"conditions": "cited from earlier work"}, "[4]": {"conditions": "in vivo; cited from earlier work"}}, "note": "Entries after “also recorded” stand apart in the source; their conditions may differ.", "data": [{"smiles": "CC[N+](CC)(CC(=O)Nc1c(C)cccc1C)Cc1ccccc1.O=C([O-])c1ccccc1", "note": "[Denatonium benzoate, phenylmethyl-[2-[(2,6-dimethylphenyl)amino]-2-oxoethyl]-diethylammonium benzoate]", "values": [{"measurement": "control of Jassids / insecticidal activity, in words", "setting": "[1]", "result": "no significant control of Jassids; also recorded: does not exhibit any insecticidal activity"}, {"measurement": "Selectivity: crop safety on okra", "setting": "[2]", "result": "Good crop safety"}, {"measurement": "concentration with generally recognized bitter taste", "setting": "[3]; in vivo", "result": 50, "unit": "ppb"}, {"measurement": "concentration detected by the average person", "setting": "[3]; taste detection", "result": 10, "unit": "ppb"}, {"measurement": "human safety in clinical trials", "setting": "[4]", "result": "extremely human safe"}]}]}
